Experimental data reported in patent publication US8097624B2, “Cycloalkyl derivatives of 3-hydroxy-4-pyridinones” (Apotex Inc., priority 2006, dated 2012).

Experiments:
[1] = tested on: Iron Overloaded Rat; assay: Urinary and fecal iron excretion in the iron overloaded rat (first study, 450 μmoles/kg); assay type: in vivo; conditions: for urinary excretion of iron compared with deferiprone: 450 μmol/kg; for Fecal excretion (fecal iron, three days after chelator administration): 450 μmoles/kg oral, n=6, mean ± 1SD
Text: The purpose of this study was to determine the effectiveness of Apo6619 and Apo6617 in promoting iron excretion in the iron overloaded rat model. Iron overloading was achieved by administration of iron dextran. Iron overloading using iron dextran has previously been used to assess chelator efficacy in mice (Kontoghiorghes G. J., Mol. Pharmacol. 1986, 30(6), 670-3; Bartfay et al., Cardiovasc Res. 1999, 43(4), 892-900), gerbils (Hershko et al., J. Lab Clin Med 2002, 139, 50-58), rats (Rakba N. Biochem Pharmacol. 1998, 55(11):1796-1806) and primates (Bergeron et. al., Blood, 1992, 79(7), 1882-1890). The iron loading regime used in this study results in a 20-fold increase in liver iron and a 3.8-fold increase in cardiac iron levels in male rats.
Six male Sprague-Dawley rats (weighing between 200-250 gms) were received from Charles River Laboratories, Montreal, Quebec, Canada. Rats were iron loaded by administration of iron dextran intraperitoneally at a dose of 100 mg/kg, twice weekly for a period of 4 weeks for a total of 8 injections (iron dextran, Sigma). The total volume of iron dextran injected was 1 mL/kg. Following an eight week period, rats were transferred to metabolic cages (one rat/cage). Once the animals were in the metabolic cages, excreta (both urine and feces) were collected daily for at least 3 day prior to and 4 days following the administration of each chelator. Each of the two chelators (Apo6619 and Apo6617) was administered consecutively. Chelators were administered as a single dose of 450 μmoles/kg by oral gavage at a dose volume of 2-4 mL/kg. The animals were weighed prior to dosing to enable exact dosage administration. Animals were checked daily (eyes, skin and movement) after chelator administration to determine if there were any obvious signs of ill health. Urine and feces were stored at −20° C. until analysis for total iron concentrations.
Rats were housed in a climate and light controlled environment (temperature: 19-25° C., relative humidity 40%, 12 hrs light/dark cycle) throughout the study. During the acclimatization, iron loading and equilibration phases, rats were placed in standard cages (2 rats/cage), fed standard rodent chow and given regular tap water ad libitum. Rats were transferred to metabolic cages (one rat/cage, Nalgene, Rochester N.Y.) after iron loading and equilibration. Three days before placement of the rats in the metabolic cages, rats were fed a low iron diet (3 ppm iron, Dyets Inc., Bethlehem, Pa.) and given Millipore water ad libitum. Rats were continued on the low iron diet for the duration of the study. The purpose of placing animals on a low iron diet was to reduce the background noise produced by dietary iron in the fecal samples.
A 50 mg/ml dosing solution of the chelator of formula I (570 mg) was first dissolved in a mixture of Millipore water (2 ml) and 6N HCl (0.4 ml) and brought up to the final volume (11.4 ml) with Millipore water (9 ml). Final pH of the solutions was adjusted to pH 4 with diluted sodium hydroxide solution. Solutions were protected from light and prepared freshly prior to each administration.
Urine and feces samples were shipped to the Trace Elements Laboratory at the London Health Sciences Center, London, Ontario, Canada for analysis of total iron concentration. Briefly, feces samples were prepared by adding water, heating to 98° C., vortexing and subsequently freeze drying. The samples were then mixed, and a representative subsample taken and digested with boiling HNO3 and H2O2. Feces samples were then diluted 1:100 with ultrapure water prior to running using a high resolution sector field ICP-MS (Finnigan Element 1). Urine samples were digested with 0.1% HNO3 and diluted 1/10 prior to running on the ICP-MS. Appropriate calibration curves using iron spiked samples and NIST traceable standards were used. Samples lying above or below the quantification range were re-run. […]

[2] = Metal complexation constants, Fe system (spectrophotometric titration; pM by Hyss); assay type: binding; conditions: for Log β3: Fe(III) overall complexation constant; for pFe^3+: total iron 10^−6 M, ligand 10^−5 M, pH 7.4, calculated from experimental pKa and complexation constants
Protocol: Compounds of this invention are designed to improve properties to known deferiprone analogues. […]. The definition of pFe^3+ used herein is the concentration of ferric ion in solution when the total amount of iron equals 10^−6 M and the concentration of ligand is 10^−5 M and pH is 7.4. It is calculated using experimental determined pKa and metal complexation constants using Hyperquad software (Version 2.1, Peter Gans, University of Leeds). The lowering of the pKa value of the C3 phenolic OH to less than 8.8 ensures that a higher pFe^3+ value when combined with a favorable complexation constant β3. The concept of complexation is detailed below.
The stepwise and overall complexation constants of a bidentate ligand such as 3-hydroxy-4-pyridinone follow: Fe(III)+Ligand→Fe[Ligand]1K1 Fe[Ligand]1+Ligand→Fe[Ligand]2K2 Fe[Ligand]2+Ligand→Fe[Ligand]3K3 Complexation constant β3=K1.K2.K3
Stepwise formation constants for M^n+-ligand systems were determined by spectrophotometric titration when metal complexes have a strong absorbance in the visible region due to ligand to metal charge transfer. In a typical experiment, the sample solution was prepared according to the following method: Apo6619 (10.7 mg) was weighed into an 80-ml beaker, followed by the addition of 0.1 M NaCl (50 ml). The mixture was sonicated for 10 minutes to give a clear colorless solution. Iron stock solution (atomic absorption standard, Aldrich, 496 μl, 8.93E-06 moles) was pipetted into the solution followed by the addition of 1.000 N NaOH (137 μl). The molar ratio between the total iron and the total Apo6619 was 1:5.4. The mixture was allowed to equilibrate at room temperature overnight. Nitrogen was allowed to bubble through the solution. 1.000 N Hydrochloric acid (3 ml) was then added to the solution to give pH 1.5. The solution was allowed to equilibrate at 22° C. for 3 hours.
A sipper system was used for the circulation of the sample solution between the beaker and the flow cell.
The sample solution was titrated against standard NaOH solutions at 22° C. to reach pH 6.89. After each addition of base the solution was allowed to equilibrate until a constant pH reading was reached. The pH and the UV-Vis spectrum were recorded for each measurement. For each measurement enough base was added so that there was a slight increase in the absorbance of the spectrum. The solution was titrated until there was no obvious increase in the spectra after several subsequent additions of base. Altogether 64 measurements were taken to finish the experiment.
[…]; pM^n+ is defined as −log [M(H2O)m]^n+ at physiological conditions, i.e.: pH 7.4, a ligand concentration of 10 μM, and a metal concentration of 1 μM.
To calculate pM^n+ for a MLn system, βn and pKa values are needed (βn are the formation constants for M^n++n L^− ? MLn; pKa are the equilibrium constants for L^−+n H^+ ? LHn^(n−1)+). The pM^n+ can be calculated by using Hyss software (Hyperquad Stimulation and Speciation software: HYSS2© 2000 Protonic Sofware).

[3] = single oral dose 450 μmoles/kg, n=6

Structure (SMILES) | urinary excretion of iron compared with deferiprone [1] | Fecal excretion (fecal iron, three days after chelator administration) [1] | urinary iron excretion one day after chelator administration [1, 3] | urinary iron excretion second day after chelator administration [1, 3] | Log β3 [2] | pFe^3+ [2] | urinary iron excretion third day after chelator administration [1, 3] | PM Fe(III) ([2]; pH 7.4, ligand 10 μM, metal 1 μM)
Cc1cc(=O)c(O)c(C(=O)NC2CC2)n1C [Apo6617, 3-Hydroxy-1,6-dimethyl-4-oxo-1,4-dihydro-pyridine-2-carboxylic Acid Cyclopropylamide] | significantly higher than deferiprone | 4411 ± 790 µg/day/kg | 164 ± 55 µg/day/kg | 17 ± 13 µg/day/kg | 33.6 | 20.8 | – | –
CNC(=O)c1c(O)c(=O)cc(C)n1C1CC1 [Apo6619, 1-Cyclopropyl-3-hydroxy-6-methyl-4-oxo-1,4-dihydro-pyridine-2-carboxylic Acid Methylamide] | significantly higher than deferiprone | 4154 ± 1245 µg/day/kg | 240 ± 131 µg/day/kg | 16 ± 5 µg/day/kg | 33.4 | 20.7 | 5 ± 1 µg/day/kg | 20.5
Cc1c(O)c(=O)ccn1C [deferiprone, 1,2-dimethyl-3-hydroxy-4-pyridinone, reference compound] | – | 2157 ± 169 µg/day/kg | 80 ± 32 µg/day/kg | returned to baseline | 36.3 | 19.7 | – | –
